For 25 molecules, EC50 results are on record in patent US20240124451A1, “PHTHALAZINE DERIVATIVES USEFUL AS INHIBITORS OF NOD-LIKE RECEPTOR PROTEIN 3” (Merck Sharp & Dohme LLC, priority 2022, published 2024).

In this assay the target is T1, NLRP3 inflammasome (Homo sapiens, UniProt Q96P20).
T1 construct: host or cells: THP-1 human monocytic cells, PMA-treated, stimulated with gramicidin
T1 sequence (Q96P20 whole entry): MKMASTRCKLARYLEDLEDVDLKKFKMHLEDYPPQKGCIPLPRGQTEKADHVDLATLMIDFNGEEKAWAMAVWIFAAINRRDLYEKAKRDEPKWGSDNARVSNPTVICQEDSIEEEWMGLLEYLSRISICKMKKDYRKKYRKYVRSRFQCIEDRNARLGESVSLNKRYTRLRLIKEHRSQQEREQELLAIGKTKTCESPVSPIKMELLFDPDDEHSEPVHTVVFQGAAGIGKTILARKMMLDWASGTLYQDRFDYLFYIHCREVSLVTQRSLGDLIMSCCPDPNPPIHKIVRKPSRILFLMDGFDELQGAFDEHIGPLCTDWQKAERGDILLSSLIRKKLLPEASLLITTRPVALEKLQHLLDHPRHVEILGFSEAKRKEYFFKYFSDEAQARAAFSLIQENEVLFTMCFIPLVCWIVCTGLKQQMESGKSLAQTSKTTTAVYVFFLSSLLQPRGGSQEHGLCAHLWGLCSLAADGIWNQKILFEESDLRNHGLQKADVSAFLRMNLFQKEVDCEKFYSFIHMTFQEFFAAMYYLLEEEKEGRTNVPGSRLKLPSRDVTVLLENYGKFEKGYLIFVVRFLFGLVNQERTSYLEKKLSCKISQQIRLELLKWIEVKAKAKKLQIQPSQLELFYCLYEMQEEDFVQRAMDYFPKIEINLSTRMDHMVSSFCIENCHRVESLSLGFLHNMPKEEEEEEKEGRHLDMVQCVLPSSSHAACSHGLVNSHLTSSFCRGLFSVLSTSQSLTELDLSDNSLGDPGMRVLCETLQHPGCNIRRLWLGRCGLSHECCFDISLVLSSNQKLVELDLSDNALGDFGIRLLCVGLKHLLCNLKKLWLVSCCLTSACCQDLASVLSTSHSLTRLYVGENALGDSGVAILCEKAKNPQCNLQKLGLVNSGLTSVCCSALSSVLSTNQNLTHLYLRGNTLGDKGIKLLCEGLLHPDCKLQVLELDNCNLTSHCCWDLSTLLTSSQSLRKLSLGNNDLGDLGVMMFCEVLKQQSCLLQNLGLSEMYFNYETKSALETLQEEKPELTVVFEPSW
The assay is described as follows: ASC-SPECK formation in THP-1 cells after gramicidin stimulation (NLRP3 inflammasome activation). The class given is cell-based. Particulars: PMA-treated human monocytic THP-1 cells, compound 1 h before 12.5 ug/ml gramicidin, 3 h, ASC SPECK imaging; read-out: EC50 (nM) for Examples that inhibit NLRP3 inflammasome activation. As to the method: The ability of compounds to inhibit NLRP3 inflammasome activation was determined in vitro by monitoring formation of the ASC-SPECK in human monocytic THP-1 cells after stimulation. THP-1 cells (ATCC catalog #TIB-202) were maintained in complete growth media containing Roswell Park Memorial Institute RPMI (ATCC catalog #30-2001), 10% heat inactivated fetal bovine serum, 1× penicillin/streptomycin and 0.05 mM 2-mercaptoethanol. At the start of the assay, undifferentiated THP-1 cells were plated at a density of 20,000 cells per well in a 384-well plate (Poly-D-lysine coated Cell Carrier Ultra microplate, Perkin Elmer catalog #6057500) in complete growth media supplemented with 10 ng/ml phorbol 12-myristate 13-acetate (PMA; Sigma catalog #P8139), and then incubated overnight. The next day, media was replaced with assay media [RPMI (Gibco catalog #11875-093), 0.01% bovine serum albumin (BSA)]. Compounds were serially diluted in DMSO and then added to wells one hour prior to the addition of 12.5 ug/ml Gramicidin (Enzo Lifescience, catalog #ALX-350-233-M005). All incubations were carried out at 37° C. (5% CO2/95% air). Following a 3-hour treatment with gramicidin, cells are fixed with 4% paraformaldehyde and stored at 4° C. until immunofluorescence staining.
Immunofluorescence staining: Anti-ASC antibody (MBL catalog #D086-3) was desalted and labeled with Alexa 488 antibody labeling kit (Thermo catalog #A20181) prior to use as described below. After fixation, the following steps were carried out at room temperature. Cells were first permeabilized with 0.3% Triton X-100 in phosphate-buffered saline (PBS) for 15 minutes and then incubated in blocking buffer containing 5% goat serum, 0.3% tween-20 and 0.03% sodium azide in PBS for 1 hour. Cells were stained with a mixture of ASC-Alexa 488 antibody (diluted 1:200 in blocking buffer) and nuclear stain DRAQ5 (1:5000 in blocking buffer, Thermo catalog #62251) in blocking buffer for 1 hour. Following a wash with 0.3% Tween-20 in PBS, plates were imaged with an Opera Phenix High Content Screening System. The number of DRAQ5 positive cells containing ASC SPECKS were quantified in each well.
Data analysis: EC50 values were calculated by standard curve-fitting analysis using an internally developed program in TIBCO Spotfire software.
`Oc1cc(C(F)(F)F)ccc1-c1nnc(N2CCC(O)(C(F)(F)F)C2)c2ncccc12` (racemic) [Example 27, (R and S)-1-(5-(2-hydroxy-4-(trifluoromethyl)phenyl)pyrido [2,3-d]pyridazin-8-yl)-3-(trifluoromethyl)pyrrolidin-3-ol]: the 50% effective concentration (EC50) amounted to 1230 nM.

On to `Oc1cc(C(F)(F)F)ccc1-c1nnc(N2CCC(O)(C(F)F)C2)c2ncccc12` (racemic) [Example 28, (R and S)-3-(difluoromethyl)-1-(5-(2-hydroxy-4-(trifluoromethyl)phenyl)pyrido [2,3-d]pyridazin-8-yl)pyrrolidin-3-ol], for which the EC50 was 447 nM.

With `Oc1cc(C(F)(F)F)ccc1-c1nnc(N2CCC3(CCCO3)C2)c2ncccc12` (racemic) [Example 29, (R and S)-2-(8-(1-oxa-7-azaspiro[4.4]nonan-7-yl)pyrido[2,3-d]pyridazin-5-yl)-5-(trifluoromethyl)phenol], the EC50 came out at 353 nM.

As for `Oc1cc(C(F)(F)F)ccc1-c1nnc(N2CCC(O)(c3ccccc3)C2)c2ncccc12` (racemic) [Example 38, (R and S)-1-(5-(2-hydroxy-4-(trifluoromethyl)phenyl)pyrido [2,3-d]pyridazin-8-yl)-3-phenylpyrrolidin-3-ol], the concentration for a half-maximal effect (EC50) came to 1600 nM.

`Oc1cc(C(F)(F)F)ccc1-c1nnc(N2CC(O)C(F)(F)C2)c2ncccc12` (racemic) [Example 43, (R and S)-4,4-difluoro-1-(5-(2-hydroxy-4-(trifluoromethyl)phenyl)pyrido [2,3-d]pyridazin-8-yl)pyrrolidin-3-ol]: the EC50 came out at 482 nM.

For the molecule `Oc1cc(C(F)(F)F)ccc1-c1nnc(N2CC(O)C3(CC3)C2)c2ncccc12` (racemic) [Example 44, (R and S)-5-(5-(2-hydroxy-4-(trifluoromethyl)phenyl)pyrido [2,3-d]pyridazin-8-yl)-5-azaspiro[2.4]heptan-7-ol], the EC50 is 591 nM.

Turning to `Oc1cc(C(F)(F)F)ccc1-c1nnc(N2CCC(O)(C3CC3)C2)c2ncccc12` (racemic) [Example 45, (R and S)-3-cyclopropyl-1-(5-(2-hydroxy-4-(trifluoromethyl)phenyl)pyrido [2,3-d]pyridazin-8-yl)pyrrolidin-3-ol], the 50% effective concentration (EC50) was determined as 1180 nM.

For the molecule `CN(C)CC1(O)CCN(c2nnc(-c3ccc(C(F)(F)F)cc3O)c3cccnc23)C1` (racemic) [Example 46, (R and S)-3-((dimethylamino)methyl)-1-(5-(2-hydroxy-4-(trifluoromethyl)phenyl)pyrido [2,3-d]pyridazin-8-yl)pyrrolidin-3-ol], the EC50 worked out at 831 nM.

On to `CCC1(O)CCN(c2nnc(-c3ccc(C(F)(F)F)cc3O)c3cccnc23)C1` (racemic) [Example 47, (R and S)-3-ethyl-1-(5-(2-hydroxy-4-(trifluoromethyl)phenyl)pyrido [2,3-d]pyridazin-8-yl)pyrrolidin-3-ol], for which the EC50 stood at 494 nM.

On to `CC1(CO)CCN(c2nnc(-c3ccc(C(F)(F)F)cc3O)c3cccnc23)C1` (racemic) [Example 48, (R and S)-2-(8-(3-(hydroxymethyl)-3-methylpyrrolidin-1-yl)pyrido[2,3-d]pyridazin-5-yl)-5-(trifluoromethyl)phenol], for which the EC50 stood at 411 nM.

Consider `C[C@]1(O)CCN(c2nnc(-c3ccc(C(F)(F)F)cc3O)c3cnccc23)C1` (single isomer, unassigned) [Example 1], for which the half-maximal effective concentration (EC50) was 356 nM.

As for `C[C@]1(O)CCN(c2nnc(-c3ccc(C(F)(F)F)cc3O)c3ccncc23)C1` (single isomer, unassigned) [Example 2], the concentration for a half-maximal effect (EC50) is 49 nM.

Regarding `C[C@@H]1CN(c2nnc(-c3ccc(C(F)(F)F)cc3O)c3ccncc23)C[C@H](C)[C@]1(C)O` (single isomer, unassigned) [Example 16], the half-maximal effective concentration (EC50) was found to be 70 nM.

Consider `C[C@@H]1CN(c2nnc(-c3ccc(C(F)(F)F)cc3O)c3ccncc23)C[C@H](C)[C@H]1O` (single isomer, unassigned) [Example 18], for which the concentration giving a half-maximal response (EC50) was determined as 23 nM.

`Cc1ccc2c(-c3ccc(C(F)(F)F)cc3O)nnc(N3C[C@@H](C)O[C@@H](C)C3)c2c1` (single isomer, unassigned) [Example 20, 2-(4-((cis)-2,6-dimethylmorpholino)-6-methylphthalazin-1-yl)-5-(trifluoromethyl)phenol]: the concentration giving a half-maximal response (EC50) amounted to 33 nM.

In the case of `CC1CN(c2nnc(-c3ccc(C(F)(F)F)cc3O)c3cccnc23)CC(CO)O1` (single isomer, unassigned) [Example 51, 2-(8-((2R,6R or 2S,6S)-2-(hydroxymethyl)-6-methylmorpholino)pyrido[2,3-d]pyridazin-5-yl)-5-(trifluoromethyl) phenol], the EC50 amounted to 65 nM.

As for `CC1CN(c2nnc(-c3ccc(C(F)(F)F)cc3O)c3cccnc23)CC(CO)O1` (single isomer, unassigned) [Example 52, 2-(8-((2S,6S or 2R,6R)-2-(hydroxy-methyl)-6-methyl-morpholino)pyrido[2,3-d]pyridazin-5-yl)-5-(trifluoro-methyl)phenol], the EC50 was determined as 74 nM.

Turning to `C[C@@H]1CN(c2nnc(-c3ccc(C(F)(F)F)cc3OC(F)F)c3cccnc23)C[C@H](C)O1` [Example 3, (cis)-4-(5-(2-(difluoromethoxy)-4-(trifluoromethyl)phenyl)pyrido[2,3-d]pyridazin-8-yl)-2,6-dimethylmorpholine], the 50% effective concentration (EC50) was 891 nM.

Regarding `C[C@@H]1CN(c2nnc(-c3ccc(C(F)(F)F)cc3O)c3ccncc23)C[C@H](C)O1` [Example 4, 2-(4-((cis)-2,6-dimethylmorpholino)pyrido[3,4-d]pyridazin-1-yl)-5-(trifluoromethyl)phenol], the EC50 is 82 nM.

Consider `C[C@@H]1CN(c2nnc(-c3ccc(C(F)(F)F)cc3O)c3cnccc23)C[C@H](C)O1` [Example 5, 2-(1-((cis)-2,6-dimethylmorpholino)pyrido[3,4-d]pyridazin-4-yl)-5-(trifluoromethyl)phenol], for which the EC50 amounted to 556 nM.

As for `C[C@@H]1CN(c2nnc(-c3ccc(C(F)(F)F)cc3O)c3ncccc23)C[C@H](C)O1` [Example 6, 2-(5-((cis)-2,6-dimethylmorpholino)pyrido[2,3-d]pyridazin-8-yl)-5-(trifluoromethyl)phenol], the concentration giving a half-maximal response (EC50) came out at 1850 nM.

On to `C[C@@H]1CN(c2nnc(-c3ccc(C(F)(F)F)cc3OC(F)F)c3ccncc23)C[C@H](C)O1` [Example 7, (cis)-4-(1-(2-(difluoromethoxy)-4-(trifluoromethyl)phenyl)pyrido[3,4-d]pyridazin-4-yl)-2,6-dimethylmorpholine], for which the EC50 came out at 570 nM.

For `C[C@@H]1CN(c2nnc(-c3ccc(C(F)(F)F)cc3O)c3ccnnc23)C[C@H](C)O1` [Example 8, 2-(8-((cis)-2,6-dimethylmorpholino)pyridazino[4,5-c]pyridazin-5-yl)-5-(trifluoromethyl)phenol], the EC50 is 515 nM.

Regarding `C[C@@H]1CN(c2nnc(-c3ccc(C(F)(F)F)cc3O)c3cnncc23)C[C@H](C)O1` [Example 9, 2-(4-((cis)-2,6-dimethylmorpholino)pyridazino[4,5-d]pyridazin-1-yl)-5-(trifluoromethyl)phenol], the EC50 turned out to be 80 nM.

As to `Cc1ccc2c(-c3ccc(C(F)(F)F)cc3O)nnc(N3CC[C@](C)(O)C3)c2n1` [Example 10, (S)-1-(5-(2-hydroxy-4-(trifluoromethyl)phenyl)-2-methylpyrido[2,3-d]pyridazin-8-yl)-3-methylpyrrolidin-3-ol], the EC50 came out at 60 nM.

By EC50 is commonly meant the concentration giving half of the maximal effect.
